# Results: ChEMBL document CHEMBL1135808, “A new type of mixed anhydride and its applications to the synthesis of 7-substituted 8-chloro-5,5-dioxoimidazo[1,2-b][1,4,2]benzodithiazines with in vitro antitumor activity” (2002)
# Key:
# [1] = system: Hs-578T; assay: In vitro growth inhibition against breast cancer HS 578T cell line was reported.; assay type: functional; conditions: Homo sapiens
# [2] = system: MCF7; assay: In vitro total growth inhibition against breast cancer MCF 7 cell lines was reported.; assay type: functional; conditions: Homo sapiens, read-out: Log TGI (converted)
# [3] = system: MDA-N; assay: In vitro total growth inhibition against breast cancer MDA-N cell lines was reported.; assay type: functional; conditions: Homo sapiens, read-out: Log TGI (converted)
# [4] = system: NCI/ADR-RES; assay: In vitro total growth inhibition against breast cancer NCI/ADR-RES cell lines was reported.; assay type: functional; conditions: Homo sapiens, read-out: Log TGI (converted)
# [5] = system: T47D; assay: In vitro growth inhibition against breast cancer […] cell line was reported.; assay type: functional; conditions: Homo sapiens
# [6] = system: COLO 205; assay: Log of molar concentration leading to 50% cell death against colon cancer COLO 205 cell line was reported; assay type: functional; conditions: Homo sapiens, read-out: Log LC50 (the source's name) (converted)
# [7] = system: HCC 2998; assay: In vitro total growth inhibition against colon cancer HCC2998 cell lines was reported.; assay type: functional; conditions: Homo sapiens, read-out: Log TGI (converted)
# [8] = system: HCT-116; assay: Log of molar concentration leading to 50% cell death against colon cancer HCT116 cell line was reported; assay type: functional; conditions: Homo sapiens, read-out: Log LC50 (the source's name) (converted)
# [9] = system: SF-295; assay: In vitro total growth inhibition against CNS cancer SF-295 cell lines was reported.; assay type: functional; conditions: Homo sapiens, read-out: Log TGI (converted)
# [10] = system: SF-539; assay: In vitro total growth inhibition against CNS cancer SF-539 cell lines was reported.; assay type: functional; conditions: Homo sapiens, read-out: Log TGI (converted)
# [11] = system: SNB-75; assay: In vitro growth inhibition against CNS cancer SNB-75 cell line was reported.; assay type: functional; conditions: Homo sapiens
# [12] = system: SNB-75; assay: In vitro total growth inhibition against CNS cancer SNB-75 cell lines was reported.; assay type: functional; conditions: Homo sapiens, read-out: Log TGI (converted)
# [13] = system: SF-268; assay: In vitro growth inhibition against CNS cancer SF-268 cell line was reported.; assay type: functional; conditions: Homo sapiens
# [14] = system: HCT-15; assay: In vitro total growth inhibition against colon cancer HCT-15 cell lines was reported.; assay type: functional; conditions: Homo sapiens, read-out: Log TGI (converted)
# [15] = system: HT-29; assay: In vitro total growth inhibition against colon cancer HT-29 cell lines was reported.; assay type: functional; conditions: Homo sapiens, read-out: Log TGI (converted)
# [16] = system: KM12; assay: In vitro growth inhibition against colon cancer KM12 cell line was reported.; assay type: functional; conditions: Homo sapiens
# [17] = system: SW-620; assay: In vitro growth inhibition against colon cancer SW620 cell line was reported.; assay type: functional; conditions: Homo sapiens
# [18] = system: Tumor Cell line; assay: In vitro inhibition of 50% cell growth was reported as log of molar concentration for 60 cell lines.; assay type: functional; conditions: Homo sapiens
# [19] = system: Tumor Cell line; assay: In vitro total growth inhibition for 50 cell lines was reported as log of molar concentration; assay type: functional, Homo sapiens
# [20] = system: K562; assay: In vitro total growth inhibition against leukemia K-562 cell lines was reported.; assay type: functional; conditions: Homo sapiens, read-out: Log TGI (converted)
# [21] = system: CCRF-CEM; assay: In vitro total growth inhibition against leukemia CCRF cell lines was reported.; assay type: functional; conditions: Homo sapiens, read-out: Log TGI (converted)
# [22] = system: HL-60; assay: In vitro growth inhibition against leukemia HL-60(TB) cell line was reported.; assay type: functional; conditions: Homo sapiens
# [23] = system: HL-60; assay: In vitro total growth inhibition against leukemia HL-60(TB) cell lines was reported.; assay type: functional; conditions: Homo sapiens, read-out: Log TGI (converted)
# [24] = system: MOLT-4; assay: In vitro growth inhibition against leukemia MOLT-4 cell line was reported.; assay type: functional; conditions: Homo sapiens
# [25] = system: MOLT-4; assay: In vitro total growth inhibition against leukemia MOLT-4 cell lines was reported.; assay type: functional; conditions: Homo sapiens, read-out: Log TGI (converted)
# [26] = system: SK-MEL-2; assay: In vitro growth inhibition against melanoma SK-MEL-2 cell line was reported.; assay type: functional; conditions: Homo sapiens
# [27] = system: UACC-62; assay: In vitro growth inhibition against melanoma UACC-62 cell line was reported.; assay type: functional; conditions: Homo sapiens
# [28] = system: HOP-62; assay: In vitro total growth inhibition against non-small-cell lung cancer HOP-62 cell lines was reported.; assay type: functional; conditions: Homo sapiens, read-out: Log TGI (converted)
# [29] = system: NCI-H226; assay: In vitro total growth inhibition against non-small-cell lung cancer NCI-H226 cell lines was reported.; assay type: functional; conditions: Homo sapiens, read-out: Log TGI (converted)
# [30] = system: NCI-H322M; assay: Log of molar concentration leading to 50% cell death against non-small-cell lung cancer NCI-H322M cell line was reported; assay type: functional; conditions: Homo sapiens, read-out: Log LC50 (the source's name) (converted)
# [31] = system: OVCAR-4; assay: In vitro growth inhibition against ovarian cancer OVCAR-4 cell line was reported.; assay type: functional; conditions: Homo sapiens
# [32] = system: OVCAR-5; assay: In vitro total growth inhibition against ovarian cancer OVCAR-5 cell lines was reported.; assay type: functional; conditions: Homo sapiens, read-out: Log TGI (converted)
# [33] = system: OVCAR-8; assay: In vitro growth inhibition against ovarian cancer OVCAR-8 cell line was reported.; assay type: functional; conditions: Homo sapiens
# [34] = system: OVCAR-8; assay: In vitro total growth inhibition against ovarian cancer OVCAR-8 cell lines was reported.; assay type: functional; conditions: Homo sapiens, read-out: Log TGI (converted)
# [35] = system: DU-145; assay: In vitro growth inhibition against prostate cancer […] cell line was reported.; assay type: functional; conditions: Homo sapiens
# [36] = system: CAKI-1; assay: In vitro growth inhibition against renal cancer CAKI-1 cell line was reported.; assay type: functional; conditions: Homo sapiens
# [37] = system: RXF 393; assay: In vitro growth inhibition against renal cancer RXF 393 cell line was reported.; assay type: functional; conditions: Homo sapiens
# [38] = system: RXF 393; assay: In vitro total growth inhibition against renal cancer RXF 393 cell lines was reported.; assay type: functional; conditions: Homo sapiens, read-out: Log TGI (converted)
# [39] = system: SN12C; assay: In vitro growth inhibition against renal cancer SN12C cell line was reported.; assay type: functional; conditions: Homo sapiens
# [40] = system: TK-10; assay: In vitro growth inhibition against renal cancer TK-10 cell line was reported.; assay type: functional; conditions: Homo sapiens
# [41] = system: TK-10; assay: In vitro total growth inhibition against renal cancer TK-10 cell lines was reported.; assay type: functional; conditions: Homo sapiens, read-out: Log TGI (converted)
# [42] = system: UO-31; assay: In vitro growth inhibition against renal cancer UO-31 cell line was reported.; assay type: functional; conditions: Homo sapiens
# [43] = system: HL-60; assay: Log of molar concentration leading to 50% cell death against leukemia HL-60(TB) cell line was reported; assay type: functional; conditions: Homo sapiens, read-out: Log LC50 (the source's name) (converted)
# [44] = system: OVCAR-4; assay: Log of molar concentration leading to 50% cell death against ovarian cancer OVCAR-4 cell line was reported; assay type: functional; conditions: Homo sapiens, read-out: Log LC50 (the source's name) (converted)
# [45] = system: MDA-MB-231; assay: Log of molar concentration leading to 50% cell death against breast cancer MDA-MB-231/ATCC cell line was reported; assay type: functional; conditions: Homo sapiens, read-out: Log LC50 (the source's name) (converted)
# [46] = system: UACC-62; assay: In vitro total growth inhibition against melanoma UACC-62 cell lines was reported.; assay type: functional; conditions: Homo sapiens, read-out: Log TGI (converted)
# [47] = system: M14; assay: Log of molar concentration leading to 50% cell death against melanoma M14 cell line was reported; assay type: functional; conditions: Homo sapiens, read-out: Log LC50 (the source's name) (converted)
# [48] = system: SK-MEL-5; assay: Log of molar concentration leading to 50% cell death against melanoma SK-MEL-5 cell line was reported; assay type: functional; conditions: Homo sapiens, read-out: Log LC50 (the source's name) (converted)
# [49] = system: DU-145; assay: Log of molar concentration leading to 50% cell death against prostate cancer […] cell line was reported; assay type: functional; conditions: Homo sapiens, read-out: Log LC50 (the source's name) (converted)
# [50] = system: NCI-H46; assay: In vitro growth inhibition against non-small-cell lung cancer […] cell line was reported.; assay type: functional; conditions: Homo sapiens
# [51] = system: NCI-H226; assay: In vitro growth inhibition against non-small-cell lung cancer NCI-H226 cell line was reported.; assay type: functional; conditions: Homo sapiens
# [52] = system: TK-10; assay: Log of molar concentration leading to 50% cell death against renal cancer TK-10 cell line was reported; assay type: functional; conditions: Homo sapiens, read-out: Log LC50 (the source's name) (converted)
# [53] = system: U-251; assay: Log of molar concentration leading to 50% cell death against CNS cancer U251 cell line was reported; assay type: functional; conditions: Homo sapiens, read-out: Log LC50 (the source's name) (converted)
# [54] = system: OVCAR-3; assay: In vitro growth inhibition against ovarian cancer OVCAR-3 cell line was reported.; assay type: functional; conditions: Homo sapiens
# [55] = system: ACHN; assay: In vitro growth inhibition against renal cancer ACHN cell line was reported.; assay type: functional; conditions: Homo sapiens
# [56] = system: RPMI-8226; assay: In vitro growth inhibition against leukemia […] cell line was reported.; assay type: functional; conditions: Homo sapiens
# [57] = system: LOX IMVI; assay: In vitro growth inhibition against melanoma LOX IMVI cell line was reported.; assay type: functional; conditions: Homo sapiens
# [58] = system: HT-29; assay: In vitro growth inhibition against colon cancer HT-29 cell line was reported.; assay type: functional; conditions: Homo sapiens
# [59] = system: UO-31; assay: In vitro total growth inhibition against renal cancer UO-31 cell lines was reported.; assay type: functional; conditions: Homo sapiens, read-out: Log TGI (converted)
# [60] = system: A498; assay: In vitro total growth inhibition against renal cancer A-498 cell lines was reported.; assay type: functional; conditions: Homo sapiens, read-out: Log TGI (converted)
# [61] = system: OVCAR-8; assay: Log of molar concentration leading to 50% cell death against ovarian cancer OVCAR-8 cell line was reported; assay type: functional; conditions: Homo sapiens, read-out: Log LC50 (the source's name) (converted)
smiles,measurement,setting,value
Cc1ccc2cccc(NC(=O)c3cc4c(cc3Cl)Sc3nccn3S4(=O)=O)c2n1,GI50,[1],13.5 µM
same,TGI,[2],14.8 µM
same,TGI,[3],91.2 µM
same,TGI,[4],41.7 µM
same,GI50,[5],2.4 µM
same,CC50,[6],55 µM
same,TGI,[7],4.68 µM
same,CC50,[8],40.7 µM
same,TGI,[9],24.5 µM
same,TGI,[10],4.9 µM
same,GI50,[11],6.92 µM
same,TGI,[12],30.9 µM
same,GI50,[13],9.55 µM
same,TGI,[14],27.5 µM
same,TGI,[15],56.2 µM
same,GI50,[16],6.61 µM
same,GI50,[17],7.76 µM
same,GI50,[18],97.7 µM
same,Log GTI,[19],-4.01
same,TGI,[20],38 µM
same,TGI,[21],17 µM
same,GI50,[22],0.01 µM
same,TGI,[23],0.01 µM
same,GI50,[24],4.57 µM
same,TGI,[25],20 µM
same,GI50,[26],13.2 µM
same,GI50,[27],14.5 µM
same,TGI,[28],16.2 µM
same,TGI,[29],57.5 µM
same,CC50,[30],50.1 µM
same,GI50,[31],11 µM
same,TGI,[32],37.2 µM
same,GI50,[33],3.8 µM
same,TGI,[34],14.5 µM
same,GI50,[35],5.5 µM
same,GI50,[36],23.4 µM
same,GI50,[37],9.55 µM
same,TGI,[38],25.1 µM
same,GI50,[39],12.3 µM
same,GI50,[40],8.51 µM
same,TGI,[41],20.9 µM
same,GI50,[42],1.02 µM
same,CC50,[43],3.8 µM
same,CC50,[44],61.7 µM
same,CC50,[45],49 µM
same,TGI,[46],30.9 µM
same,CC50,[47],57.5 µM
same,CC50,[48],50.1 µM
same,CC50,[49],42.7 µM
same,GI50,[50],2.63 µM
same,GI50,[51],15.1 µM
same,CC50,[52],45.7 µM
same,CC50,[53],38 µM
same,GI50,[54],2.95 µM
same,GI50,[55],8.51 µM
same,GI50,[56],1.7 µM
same,GI50,[57],5.01 µM
same,GI50,[58],9.55 µM
same,TGI,[59],42.7 µM
same,TGI,[60],40.7 µM
same,CC50,[61],53.7 µM
